From patent US5019574A, “3,4-diaminoquinoline and 3,4-diamino-5,6,7,8-tetrahydroquinoline compounds useful for improving psychoneural function” (Chugai Seiyaku Kabushiki Kaisha, priority 1988, dated 1991)

Tests used:
[1] = tested on: norepinephrine uptake into the synaptosomes; assay: Inhibition of catecholamine uptake: 3H-norepinephrine uptake into synaptosomes; type: biochemical, rats (F344/Crj); conditions: 1 μM; norepinephrine uptake in the absence of drug compounds taken as 100
Method: (§1) Inhibition of Catecholamine Uptake:
(§2) A crude synaptosomal fraction (P2) was obtained from the brain of rats (F344/Crj) in the usual manner. In accordance with the method of S. H. Snyder and J. T. Coyle described in Journal of Pharmacology and Experimental Therapeutics, 165(1), 78-86, 1969, the fraction P2 was incubated in a Krebs-Henseleit bicarbonate buffer solution at 37° C. for 10 minutes together with 50 nM ^3 H-norepinephrine (0.25 jμCi). Thereafter, the uptake of norepinephrine into the synaptosomes was measured by the filtration method. Selected compounds were added at a concentration of 1 μM to the solution being incubated and their effect on norepinephrine uptake was examined. The control drug was tetrahydroaminoacridine (THA).
The results are shown in Table 3 in terms of percentage, with norepinephrine uptake in the absence of drug compounds being taken as 100.

[2] = tested on: male ICR mice; assay: Improvement of memory and learning ability tested by passive avoidance response; type: in vivo; conditions: dose 10 (μg/kg i.p.); retention trial 24 hours after acquisition trial
Method: Improvement of memory and Learning Ability Tested by Passive Avoidance Response:
Four groups of male ICR mice (10-14 weeks old). each consisting of 10 animals, were used in the experiment. Except for one control group, the mice were administered with selected compounds of the present invention. The experimental chamber consisted of a light and a dark compartment and an electric current shock source was connected to the floor grid in the dark compartment.
The experimental sessions consisted of acclimation. acquisition, and retention trials and were performed for […], one trial per day. In the acclimation trial, animals were placed in the light compartment of the experimental chamber and left there for 5 minutes to acclimate them to the apparatus. In the acquisition trial which was conducted on the 2nd day, the animals were placed in the light compartment and when they entered the dark compartment, they were confined and given an a.c. electric shock (1 mA) through the floor grid for 10 seconds. In the retention trial which was conducted 24 hours after the acquisition trial, the animals were placed in the light compartment of the chamber and the step-through latency (i.e., the time required for the animals to enter the dark compartment) was measured. A physiological saline solution was administered at the acclimation trial to all of the animals. At the acquisition trial, selected compounds were administered in amounts of 10 μg/kg of body weight (1 ml/100 g). The control group was administered the same amount of physiological saline solution 60 minutes before the start of the trial. All administrations were intraperitoneal.

[3] = target: T1, acetylcholinesterase (Electrophorus electricus, UniProt O42275); assay: Inhibition of acetylcholinesterase activity; type: biochemical; conditions: activity without drug compound taken as 100, average of three measurements, read-out: Inhibition rate (%)
T1 construct: purchased Sigma C-2888
T1 sequence (O42275 24-633): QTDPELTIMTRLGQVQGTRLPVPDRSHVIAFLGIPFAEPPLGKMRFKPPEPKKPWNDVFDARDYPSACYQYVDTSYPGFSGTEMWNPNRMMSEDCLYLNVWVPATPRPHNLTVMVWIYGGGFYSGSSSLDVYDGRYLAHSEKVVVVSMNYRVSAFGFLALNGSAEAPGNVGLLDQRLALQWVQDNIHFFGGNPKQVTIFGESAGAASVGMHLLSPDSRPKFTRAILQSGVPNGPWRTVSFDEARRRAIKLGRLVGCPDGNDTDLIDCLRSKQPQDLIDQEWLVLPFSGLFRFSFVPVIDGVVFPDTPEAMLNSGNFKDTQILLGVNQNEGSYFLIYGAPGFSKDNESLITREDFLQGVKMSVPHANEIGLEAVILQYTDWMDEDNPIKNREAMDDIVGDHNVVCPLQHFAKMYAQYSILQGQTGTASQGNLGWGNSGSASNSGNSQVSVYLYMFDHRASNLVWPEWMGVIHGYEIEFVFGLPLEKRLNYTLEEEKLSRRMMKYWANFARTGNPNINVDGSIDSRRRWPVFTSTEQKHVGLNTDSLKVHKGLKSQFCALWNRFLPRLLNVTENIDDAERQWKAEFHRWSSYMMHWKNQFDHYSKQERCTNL
Method: Inhibition of Acetylcholinesterase Activity:
Acetylcholinesterase activity was assayed in accordance with the method of S. H. Sterri and F. Fonnum described in European Journal of Biochemistry, 91: 215-222, 1978. The method consisted of incubating 0.5 μU of authentic acetylcholinesterase ([…]) (Sigma, No. C-2888) at 30° C. for 15 minutes in a 20 mM sodium phosphate buffer (pH 7.4). with 1.3 mM [1^-14 C] acetylcholine (0.025 μCi) being used as a substrate. Selected compounds of the general formula (I) were added at a concentration of 1 μM to the reaction solution and the resulting effect on enzymatic activity was evaluated.
The result was obtained as the average of three measurements and shown in Table 2 in terms of percentage, with the activity for the case where no drum compound was added being taken as 100.

[4] = tested on: uptake of dopamine into synaptosomes; assay: Inhibition of catecholamine uptake: 3H-dopamine uptake into synaptosomes; type: biochemical, rats (F344/Crj); conditions: 1 μM; dopamine uptake in the absence of drugs taken as 100
Method: as §2, §1
The uptake of dopamine into synaptosomes was measured by repeating the procedure of Test Example 2 except that 50 nM ^3 H-norepinephrine (0.25 μCi) was replaced by 15 nM ^3 H-dopamine (0.68 μCi). The control drug was tetrahydroaminoacridine (THA). The result is shown in Table 5 in terms of percentage, with dopamine uptake in the absence of drugs being taken as 100.

| Compound | Inhibition rate (%) [1] [%] | Step through latency [2] [s] | inhibition at 1 µM [3] [%] | Inhibition rate (%) [4] [%] |
| --- | --- | --- | --- | --- |
| Nc1c(N2CCCCC2)cnc2ccccc12 [Compound 1, 4-amino-3-piperidinoquinoline] | 69.1 | – | – | – |
| CN1CCN(c2cnc3ccccc3c2N)CC1 [Compound 2] | – | 92.1 ± 13.5 | 27.1 | – |
| Nc1c2c(nc(C3CCCCC3O)c1N1CCOCC1)CCCC2 (stereo not drawn) [Compound 6, 4-amino-g-(2.-hydroxycyclohexyl)-3-morpholino-5,6,7,8-tetrahydroquinoline] | 82.6 | 144.8 ± 45.1 | 36.9 | – |
| Nc1c(N2CCOCC2)c(Nc2ccccc2)nc2ccccc12 [Compound 13, 4-amino-2-anilino-3-morpholinoquinoline] | – | 100.2 ± 17.8 | – | – |
| Nc1c2c(nc(Nc3ccccc3)c1N1CCOCC1)CCCC2 [Compound 15, 4-amino-2-anilino-3-morpholino-5,6,7,8-tetrahydroquinoline] | 85.4 | 80.4 ± 14.6 | 37.2 | – |
| Nc1c2c(nc(NC3CCCCC3)c1N1CCOCC1)CCCC2 [Compound 16] | 88.1 | 102.1 ± 22.3 | 25.9 | – |
| Nc1c(N2CCOCC2)c(C2CCCCC2)nc2ccccc12 [Compound 18, 4-amino-2-cyclohexyl-3-morpholinoquinoline] | – | 116.4 ± 29.2 | – | – |
| Nc1c2c(nc(C3CCCCC3)c1N1CCOCC1)CCCC2 [Compound 19, 4-amino-2-cyclohexyl-3-morpholino-5,6,7,8-tetrahydroquinoline] | 83.2 | 107.1 ± 29.9 | 21.8 | – |
| CCN(CC)c1c(C2CCCCC2=O)nc2ccccc2c1N (stereo not drawn) [Compound 22] | – | 144.8 ± 25.5 | – | – |
| CCN(CC)c1c(C2CCCCC2O)nc2c(c1N)CCCC2 (stereo not drawn) [Compound 23] | 73.7 | – | – | 83.0 |
| CCN(CC)c1c(C2CCCCC2)nc2ccccc2c1N [Compound 24] | 68.2 | 94.2 ± 14.7 | – | 59.6 |
| CCN(CC)c1c(C2CCCCC2)nc2c(c1N)CCCC2 [Compound 25] | 75.3 | – | 30.1 | 76.4 |
| Nc1c(N2CCCCC2)c(C2CCCCC2)nc2ccccc12 [Compound 26] | 68.2 | – | – | 55.4 |
| Nc1c2c(nc(C3CCCCC3)c1N1CCCCC1)CCCC2 [Compound 28] | 85.2 | – | 22.2 | 80.5 |
| CCCN(CCC)c1c(C2CCCCC2O)nc2c(c1N)CCCC2 (stereo not drawn) [Compound 30] | 76.9 | – | – | 79.2 |
| CCCN(CCC)c1c(C2CCCCC2)nc2c(c1N)CCCC2 [Compound 32] | 73.2 | 109.7 ± 16.6 | 28.7 | 71.0 |
| CCN(CC)c1c(NC2CCCCC2)nc2c(c1N)CCCC2 [Compound 34] | 80.0 | – | – | 84.8 |
| Nc1c(N2CCCCC2)c(Nc2ccccc2)nc2ccccc12 [Compound 35] | – | – | 28.3 | – |
| CCCC(C)c1nc2ccccc2c(N)c1N1CCOCC1 (stereo not drawn) [Compound 39] | 71.9 | 108.3 ± 16.0 | – | – |
| CCCC(C)c1nc2c(c(N)c1N1CCOCC1)CCCC2 (stereo not drawn) [Compound 40] | – | 113.1 ± 29.6 | – | – |
| Nc1c2c(nc(C3CCCCC3=O)c1N1CCOCC1)CCCC2 (stereo not drawn) [Compound 41] | – | – | 4.2 | – |
| CCNc1nc2ccccc2c(N)c1N1CCOCC1 [Compound 43, 4-amino-2-ethylamino-3-morpholinoquinoline] | 78.8 | 109.1 ± 13.4 | – | – |
| CCOc1nc2ccccc2c(N)c1N1CCCCC1 [Compound 44] | – | 90.4 ± 12.4 | – | – |
| CCNc1nc2ccccc2c(N)c1N1CCCCC1 [Compound 45] | 79.8 | 70.7 ± 6.8 | – | 82.3 |
| Nc1ccnc(C2CCCCC2=O)c1N1CCCCC1 (stereo not drawn) [Compound 50] | – | 83.4 ± 14.8 | – | – |
